Data set [1] in a line: Pharmacokinetic study, AMTX-100 in plasma by LC-MS. Format: in vivo. The settings on record: mice, sensitive to 2 ng/ml.
Another data set concerns Human whole blood (WB). As to the kind of experiment: Flow cytometry of human whole blood incubated with FITC-labelled peptide. Format: cell-based. As for the experimental part:
It was originally believed that the SSHR on AMTX-100 could enter cells without a receptor, energy or endocytosis. However, in studies performed by the present inventors, an AMTX-100-related peptide with a double-null knockout for Importin α/Importin β complex and Importin β obtained by amino acid substitution and also containing a FITC molecule (FITC-SMTX-100), was incubated with human blood and analyzed by flow cytometry.
Because there appeared to be a concentration of radioactivity in organs with immune cells, a series of flow cytometry experiments was initiated with human blood. All cells were first stained with FITC-AMTX-100 and then incubated with immunotyping reagents that separated hematopoietic cells into broad categories of RBCs, granulocytes, monocytes, B- and T-lymphocytes, and NK cells. […] Again, a highly unexpected finding for a peptide which is “purported” to be a promiscuous, cell-penetrating, leader sequence.
Human whole blood (WB) was obtained from multiple normal donors and incubated with [FITC]-AMTX-100 at μg/mL quantities in repeat experiments ex vivo.
Panels of monoclonal antibodies labeled with fluorescent dyes were used to phenotypically identify [FITC]-AMTX-100 penetrated WB cells including classical monocytes, non-classical monocytes, neutrophils, basophils, eosinophils, and T- and B-lymphocytes and NK cells (FIG. 4A-B). […]

A short description of data set [2]: Pharmacokinetics of [3H]-AMTX-100 after multiple routes of administration. Format: in vivo, rat. To be noted: rats, [3H]-AMTX-100. As for the experimental part: AMTX-100 was radiolabeled with 3H at lysine residues and injected into Sprague-Dawley rats in a single dose by seven different routes (intravenous, subcutaneous, topical [skin], intratracheal, intraduodenal, esophageal, and oral). The rats were evaluated at various time points, up to 120 hours, by: a) blood samples were taken for pharmacokinetics (PK) by cardiac puncture; b) rats were frozen and sectioned for QWBA and/or micro-auto-radiography and histology; and c) frozen sections were made and freeze dried and exposed to phosphor-storage imaging plates and tissue radioactivity in images was quantified as tissue: blood ratios.
For all PK studies, the following definitions were used: WB=whole blood; Plasma=whole blood depleted of red blood cells; WBCD=whole blood depleted of white blood cells in which the whole blood is passed over a Pall Acrodisc filter (about 60% efficient); WBCs=the cells which bind to, and are washed off, the Pall Acrodisc filter.

For data set [3], the system named is animal models of lung, liver, sepsis, and metabolic syndrome induced inflammation. The settings on record: intraperitoneal injections; cited from earlier work.

Each structure is given as a SMILES string.

Turning to `CSCC[C@@H]1NC(=O)[C@H](CC(C)C)NC(=O)[C@H](CCCCN)NC(=O)[C@H](CCC(N)=O)CC(=O)[C@H](CCCNC(=N)N)NC(=O)[C@H](CCCCN)NC(=O)[C@H](CCCNC(=N)N)NC(=O)[C@H](CCC(N)=O)NC(=O)[C@H](C(C)C)NC(=O)[C@@H](NC(=O)[C@@H]2CCCN2C(=O)[C@H](C)NC(=O)[C@H](CC(C)C)NC(=O)[C@H](CC(C)C)NC(=O)[C@H](C)NC(=O)[C@H](CC(C)C)NC(=O)[C@H](CC(C)C)NC(=O)[C@@H](NC(=O)[C@H](C)NC(=O)[C@@H]2CCCN2C(=O)[C@H](CC(C)C)NC(=O)[C@H](CC(C)C)NC(=O)[C@H](C)NC(=O)[C@@H](NC(=O)[C@H](C)NC(=O)[C@H](C)N)C(C)C)C(C)C)CSSC[C@@H](C(=O)O)NC(=O)[C@@H]2CCCN2C1=O` [AMTX-100], in data set [1], the “Detection of AMTX-100 in plasma depleted of RBCs and WBCs” value is reported as “not possible to detect”. The Leukocyte populations targeted entry in the data set with Human whole blood (WB) was “leukocytes (classical and non-classical monocytes, neutrophils, basophils and eosinophils)”. For the same compound, the “Partition of radiation in blood” value in data set [2] is “partitioned to the WBCs”. In addition, the “Efficacy in animal models of inflammation” value in data set [3] was “have shown efficacy”.

The record behind these values is patent publication US20260151518A1, “LEUKOCYTE-SPECIFIC CELL PENETRATING MOLECULES” (Amytrx Therapeutics, Inc., priority 2021, published 2026).
